Measured values: US4189433A, “4-Hydroxy-1,2-benzisothiazoles and their manufacture” (BASF Aktiengesellschaft, priority 1977, dated 1980)

Columns and labels:
[1] = target: T1, cardiac β1-receptors (Rattus norvegicus, UniProt P18090); assay: β1-sympatholytic action: inhibition of Isoproterenol tachycardia in pithed rats; assay type: in vivo, rat (Sprague-Dawley; conditions: Propranolol = 1.00, intravenous
T1 construct: in pithed rats (Sprague-Dawley, Mus rattus; weight 230-280 g); from tissue; host or cells: heart in situ of pithed Sprague-Dawley rats (in vivo)
T1 sequence (P18090 whole entry): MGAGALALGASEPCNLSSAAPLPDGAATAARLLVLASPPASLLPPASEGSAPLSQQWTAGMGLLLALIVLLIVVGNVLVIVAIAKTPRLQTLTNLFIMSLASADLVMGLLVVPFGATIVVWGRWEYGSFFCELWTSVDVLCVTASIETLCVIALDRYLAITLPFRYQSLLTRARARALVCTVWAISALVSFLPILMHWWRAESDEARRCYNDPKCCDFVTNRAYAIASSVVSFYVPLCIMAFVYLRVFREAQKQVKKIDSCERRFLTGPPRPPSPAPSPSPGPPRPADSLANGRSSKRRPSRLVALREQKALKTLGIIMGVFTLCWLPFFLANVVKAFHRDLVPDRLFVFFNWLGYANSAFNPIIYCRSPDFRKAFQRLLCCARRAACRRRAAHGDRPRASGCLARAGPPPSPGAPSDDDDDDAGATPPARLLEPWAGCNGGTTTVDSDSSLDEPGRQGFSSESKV
Description: (§1) The following are examples of compounds of the general formula III and/or of their acid addition salts with a physiologically safe acid: 4-(2-hydroxy-3-isopropylamino-propoxy)-1,2-benzisothiazole (III), 4-(2-hydroxy-3-tert.-butylaminopropoxy)-1,2-benzisothiazole (IV), 4-[2-hydroxy-3-(3-methylpentyl-3-amino)-propoxy]-1,2-benzisothiazole (VII), 4-[2-hydroxy-3-(2-methyl-butyl-2-amino)-propoxy]-1,2-benzisothiazole (VI), 4-[2-hydroxy-3-(2-methyl-3-but-2-ynylamino)-propoxy]-1,2-benzisothiazole (VIII), 4-(2-hydroxy-3-sec.-butylaminopropoxy-1,2-benzisothiazole (V), 4-[2-hydroxy-3-(1-methoxy-propyl-2-amino)-propoxy]-1,2-benzisothiazole (IX) and 4-[2-hydroxy-3-(pentyl-2-amino)-propoxy]-1,2-benzisothiazole (X).

[2] = target: T2, β2-receptors on the blood vessels (Rattus norvegicus, UniProt P10608); assay: β2-sympatholytic action: inhibition of Isoproterenol blood pressure reduction in rats under urethane narcosis; assay type: in vivo; conditions: for R.A. (relative activity), β2-sympatholytic action: Propranolol = 1.00; for R.A. (relative activity), β2-sympatholytic action / Q (footnote 6; numerically ED 50 β2 / ED 50 β1): intravenous; for Q (footnote 6; numerically ED 50 β2 / ED 50 β1): cardioselectivity quotient, rats
T2 construct: was tested on rats, weighing 230-280 g, under urethane narcosis; from tissue; host or cells: blood vessels in situ of urethane-anaesthetised rats (in vivo)
T2 sequence (P10608 whole entry): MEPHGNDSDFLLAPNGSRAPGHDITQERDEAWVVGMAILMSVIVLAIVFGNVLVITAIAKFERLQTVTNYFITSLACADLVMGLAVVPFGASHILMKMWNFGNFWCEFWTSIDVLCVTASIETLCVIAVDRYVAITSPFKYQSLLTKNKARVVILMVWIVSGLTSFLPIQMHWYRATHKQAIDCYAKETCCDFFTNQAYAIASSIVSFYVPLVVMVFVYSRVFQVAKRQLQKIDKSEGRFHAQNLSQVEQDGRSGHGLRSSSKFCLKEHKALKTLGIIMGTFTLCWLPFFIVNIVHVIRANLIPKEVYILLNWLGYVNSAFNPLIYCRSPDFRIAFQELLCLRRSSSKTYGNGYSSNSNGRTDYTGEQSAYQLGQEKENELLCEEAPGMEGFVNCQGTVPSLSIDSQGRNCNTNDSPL
Description: as §1

[3] = in vivo; conditions: mouse
Description: (§2) The acute toxicity was determined on groups of 10 or 20 female Swiss mice weighing 20-26 g, the compounds being administered intraperitoneally.

[4] = system: female Swiss mice; assay: in vivo; conditions: mouse
Description: as §2

[5] = Stability to light and to air; assay type: physicochemical; conditions: compared to 7-amino-4-hydroxy-1,2-benzisothiazole

SMILES	R.A. (relative activity), β1-sympatholytic action [1]	R.A. (relative activity), β2-sympatholytic action ([2]; rats under urethane narcosis)	Q (footnote 6; numerically ED 50 β2 / ED 50 β1) [2]	selectivity ratio [3]	Therapeutic range, relative [4]	stability to light and to air [5]	reduction of the mean pressure of the carotid artery, average ([2]; Isoproterenol 0.215 μg/kg i.v., rats under urethane narcosis)
CC(C)NCC(O)COc1cccc2sncc12 (stereo not drawn) [Example III, 4-(2-hydroxy-3-isopropylamino-propoxy)-1,2-benzisothiazole]	6.47	2.71	2.21	32700	3.72	–	–
CCC(C)(C)NCC(O)COc1cccc2sncc12 (stereo not drawn) [VI, 4-[2-hydroxy-3-(2-methyl-butyl-2-amino)-propoxy]-1,2-benzisothiazole]	6.68	1.38	4.48	–	8.92	–	–
CCCC(C)NCC(O)COc1cccc2sncc12 (stereo not drawn) [X, 4-[2-hydroxy-3-(pentyl-2-amino)-propoxy]-1,2-benzisothiazole]	4.88	0.42	10.70	–	2.72	–	–
CC(C)(C)NCC(O)COc1cccc2sncc12 (stereo not drawn) [IV, 4-(2-hydroxy-3-tert.-butylaminopropoxy)-1,2-benzisothiazole]	7.55	2.84	2.47	94500	10.76	–	–
CCC(C)NCC(O)COc1cccc2sncc12 (stereo not drawn) [V, 4-(2-Hydroxy-3-sec.-butylamino-propoxy)-1,2-benzisothiazole]	8.04	1.08	6.93	–	7.18	–	–
CC(=O)Nc1ccc(OC(C)=O)c2cnsc12 [7-acetamino-4-acetoxy-1,2-benzisothiazole]	–	–	–	–	–	increased stability to light and to air	–
COCC(C)NCC(O)COc1cccc2sncc12 (stereo not drawn) [IX, 4-[2-hydroxy-3-(1-methoxy-propyl-2-amino)-propoxy]-1,2-benzisothiazole]	2.48	0.26	8.90	–	3.11	–	–
CCC(C)(CC)NCC(O)COc1cccc2sncc12 (stereo not drawn) [VII, 4-[2-hydroxy-3-(3-methylpentyl-3-amino)-propoxy]-1,2-benzisothiazole]	3.75	0.94	3.69	–	4.44	–	–
C#CC(C)(C)NCC(O)COc1cccc2sncc12 (stereo not drawn) [VIII, 4-[2-hydroxy-3-(2-methyl-3-but-2-ynylamino)-propoxy]-1,2-benzisothiazole]	5.35	1.98	2.50	–	9.11	–	–
CC(C)NCC(O)c1ccc(O)c(O)c1 (stereo not drawn) [Isoproterenol, reference compound]	–	–	–	–	–	–	30%
